The text below walks through data of paper PMC10390520, “Antibody binding of amyloid beta peptide epimers/isomers and ramifications for immunotherapies and drug development” (Scientific Reports, 2023).

In the test the test system is antibodies 4G8, 6E10, mOC98 and mOC23. The test is described as follows: Immunoprecipitation of Aβ 1–42 peptides with four antibodies, LC-MS/MS detection. Type of test: binding. Particulars: Fig. 3B data, corrected with individual MS/MS calibration curves; 11 pmol Aβ peptide, 13.2 pmol antibody in 300 µL IP lysis/wash buffer; Protein A/G plus agarose; LC-MS/MS 903–886 m/z; triplicate. The protocol: Antibody binding efficacy was assessed through an immunoprecipitation procedure, followed by reconstitution in borate buffer and analysis via liquid chromatography tandem mass spectrometry (see Methods). […] Note that these antibodies were developed using the WT (all L) Aβ peptide. Further, the MS/MS detection also was optimized using the WT (all L) Aβ peptide. […] The reduced signal intentensities could be attributed to the altered binding between the antibody and the “aberrant” forms of Aβ, differences in the MS/MS of the “aberrant” Aβ or combinations of these two factors. […]
Purified anti-β-Amyloids 17–24 Antibody (4G8) and 1–16 Antibody (6E10) were purchased from BioLegend (San Diego, CA, USA) while mOC-type antibodies recombinant anti-beta amyloid 1–42 mOC98 and mOC23 were purchased from Abcam (Cambridge, UK). Antibody-antigen binding was measured using Pierce Classic IP Kit by Thermo Fisher Scientific (Waltham, MA, USA). […] Elution buffer was evaporated and samples were reconstituted in 20 µL of 0.1 M borate buffered to pH 9.1 and analyzed by LC–MS/MS. […]
HPLC–MS grade acetonitrile was purchased from Sigma-Aldrich and ultrapure water was obtained from a Milli-Q-water system (Millipore, Bedford, MA, USA). […] WT (all L) Aβ 1–42 and aberrant Aβ 1–42 immunoprecipitated standards were quantitated using the MS/MS transition 903–886 m/z. […]

“WT (all L) Aβ: unmodified wild-type all-L amyloid beta 1–42 peptide, purchased from Genscript”: the “antibody binding affinity (immunoprecipitation extraction) compared to WT (all L) Aβ” value is “same efficacy”.
